2 molecules from US20040176357A1, “2 Methyl-thieno-benzodiazepine lyophilized formulation” (priority 2001, published 2004) can be followed below.

The nature of data set [1]: solubility in parenteral diluents. The note with it: parenteral diluents suitable for injection.
Data set [2] in a line: rate of absorption after parenteral versus oral administration. It counts as in vivo. The note with it: such as IM, versus oral administration of the same dose. As to the method: Intramuscular injection is the preferred mode of delivery to the mammal being treated particularly in emergency situations. […] Preferably the lyophilized pharmaceutical formulation of this invention is diluted with aqueous solvent suitable for injection and a liquid unit dosage form prepared for administration to a mammal.

For `Cc1cc2c(s1)Nc1ccccc1N=C2N1CCN(C)CC1` [Form II], the “solubility in parenteral diluents” value in data set [1] is listed as “does not readily dissolve”.
With `Cc1cc2c(s1)Nc1ccccc1N=C2N1CCN(C)CC1` [olanzapine, 2-methyl-4-(4-methyl-1-piperazinyl)-10H-thieno[2,3-b][1,5]benzodiazepine], in data set [2], the rate of absorption result is “more rapid”. Also, the “solubility in parenteral diluents” value in data set [1] is listed as “relatively insoluble”.
